Measured values from patent US7727960B2, “C5a receptor antagonists” (Jerini AG, priority 2003, dated 2010).
Where two headings read alike, the source gives them in different places. Positions of bridges follow the written chain, without caps; N, C: chain ends. Non-standard residues stand in square brackets, D forms with d. Residues, ends and D or L forms follow the SMILES beside them. No end group written: not given here. Phe(4-NH2) = Nc1ccc(C[C@H](N)C(=O)O)cc1; Hyp = O=C(O)[C@@H]1C[C@@H](O)CN1; Cha = N[C@@H](CC1CCCCC1)C(=O)O; dCha = N[C@H](CC1CCCCC1)C(=O)O; Nle = CCCC[C@H](N)C(=O)O; Orn = NCCC[C@H](N)C(=O)O

B1: Ac-Phe-[Orn-Pro-cha-Trp-Paf] (peptide)
peptide: Ac-F[Orn]P[dCha]W[Phe(4-NH2)]
modifications: lactam (positions not given here); not fully specified (bridges); printed as Ac-Phe-[Orn-Pro-cha-Trp-Paf]
B2: Ac-Phe-Lys-Ala-Cha-Ala-Leu-ala-Tyr-OH (peptide)
peptide: Ac-FKA[Cha]AL[dA]Y-OH
SMILES: CC(=O)N[C@@H](Cc1ccccc1)C(=O)N[C@@H](CCCCN)C(=O)N[C@@H](C)C(=O)N[C@@H](CC1CCCCC1)C(=O)N[C@@H](C)C(=O)N[C@@H](CC(C)C)C(=O)N[C@H](C)C(=O)N[C@@H](Cc1ccc(O)cc1)C(=O)O

Key:
human C5aR (CD88) [1] = target: T1, human C5aR (CD88) (Homo sapiens, UniProt P21730); test: Determination of the IC50 value in an enzyme release assay (functional assay, antagonistic activity); type: cell-based; conditions: for IC50-value compared to compound 40 (in words): arginine replaced by hydrophobic substitutions
T1 construct: expressed in transfected cells; host or cells: rat basophilic leukemia cells (RBL)
T1 sequence (P21730 1-350): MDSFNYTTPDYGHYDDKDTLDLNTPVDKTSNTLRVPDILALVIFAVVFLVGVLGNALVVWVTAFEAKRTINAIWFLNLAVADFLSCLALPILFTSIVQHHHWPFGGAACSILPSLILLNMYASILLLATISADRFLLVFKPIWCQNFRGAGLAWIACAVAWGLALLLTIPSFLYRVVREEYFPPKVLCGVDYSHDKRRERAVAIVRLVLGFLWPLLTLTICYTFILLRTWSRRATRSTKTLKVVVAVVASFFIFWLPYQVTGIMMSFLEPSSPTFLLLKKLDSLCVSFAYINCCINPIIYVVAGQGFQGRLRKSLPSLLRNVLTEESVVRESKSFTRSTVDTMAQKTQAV

[2] = Solubility determination for selected C5aR-antagonists; type: physicochemical; conditions: for Solubility in 20 mM HEPES pH 7.4: 20 mM HEPES pH 7.4, 24 h at RT; for solubility: aqueous HEPES buffer (pH 7.4)
Description: Solubility of compounds was determined by the following procedure: 20 μl of a 10 mM stock solution (in DMSO) of the compound were diluted in 980 μl of the solvent to be tested. After incubation for 24 h at RT under shaking the samples are centrifuged at 11.000 rpm in an Eppendorf centrifuge. The supematant is determined by photometry. […] Therefor the compound was suspended at 10 mg/ml in the solvent systems of choice. The undissolved part was removed by centrifugation after 24 h. The UV-absorption of the supernatant was measured and compared to a respective reference value 60% MeOH).

human C5aR (CD88) [3] = target: T1, human C5aR (CD88); test: Determination of EC50 values in an enzyme release assay (agonistic activity, no C5a added); type: cell-based; conditions: cellular assay, up to a concentration of at least 1430 nM
Description: The determination of the EC50 value was performed in a way similar to the procedure described in example 11, with the only exception that 30 μl of the compound to be tested were mixed with 75 μl of the cell suspension described in example 11. There was no preincubation or addition of C5a for stimulation of the enzyme release.

human C5aR (CD88) [4] = target: T2, human C5aR (CD88) (human, UniProt P21730 1-350); test: cell-based or functional assay
T2 sequence (looked up): T1 sequence (P21730 1-350)

human C5aR (CD88) [5] = target: T2, human C5aR (CD88); test: cell-based or functional assay; remark: listed apart in the source
[6] = noteworthy = IC50 of less than 200 nM in the functional assay

Molecule	Solubility in 20 mM HEPES pH 7.4 [2]	solubility [2]	agonistic activity (in words) (human C5aR (CD88) [3])	inhibitory activity (in words) (human C5aR (CD88) [1]; [6])	also measured
CC(=O)N[C@@H](Cc1ccccc1)C(=O)N[C@H]1CCCNC(=O)[C@H](Cc2ccccc2)NC(=O)[C@H](Cc2c[nH]c3ccccc23)NC(=O)[C@@H](CC2CCCCC2)NC(=O)[C@@H]2C[C@@H](O)CN2C1=O [Compound 2, Ac-Phe-[Orn-Hyp-cha-Trp-Phe]] (Ac-F[Orn][Hyp][dCha]WF; lactam 2-C)	13 % of 200 μM	13%	pure antagonists	–	inhibitory activity (in words) (human C5aR (CD88) [1]): noteworthy inhibitory activity
CCCC[C@@H]1NC(=O)[C@H](Cc2c[nH]c3ccccc23)NC(=O)[C@@H](CC2CCCCC2)NC(=O)[C@@H]2CCCN2C(=O)[C@@H](NC(=O)[C@H](Cc2ccccc2)NC(=O)[C@H](CCCCN)NC(C)=O)CCCNC1=O [Compound 43, Ac-Lys-Phe-[Orn-Pro-cha-Trp-Nle]] (Ac-KF[Orn]P[dCha]W[Nle]; lactam 3-C)	93 % of 200 μM	–	pure antagonists	noteworthy inhibitory activity	–
CCCC[C@@H]1NC(=O)[C@H](Cc2c[nH]c3ccccc23)NC(=O)[C@@H](CC2CCCCC2)NC(=O)[C@@H]2CCCN2C(=O)[C@@H](NC(=O)[C@H](Cc2ccccc2)NC(C)=O)CCCNC1=O [Compound 28, Ac-Phe-[Orn-Pro-cha-Trp-Nle]] (Ac-F[Orn]P[dCha]W[Nle]; lactam 2-C)	22 % of 200 μM	22%	–	noteworthy inhibitory activity	IC50-value compared to compound 40 (in words) (human C5aR (CD88) [1]): without a significant increase of the IC50-value
CC(=O)N[C@@H](Cc1ccccc1)C(=O)N[C@H]1CCCNC(=O)[C@H](CCCNC(=N)N)NC(=O)[C@H](Cc2c[nH]c3ccccc23)NC(=O)[C@@H](CC2CCCCC2)NC(=O)[C@@H]2CCCN2C1=O [Compound 40, Ac-Phe-[Orn-Pro-cha-Trp-Arg], reference compound]	94 % of 200 μM	94%	–	–	–
CCCC[C@@H]1NC(=O)[C@H](Cc2c[nH]c3ccccc23)NC(=O)[C@@H](CC2CCCCC2)NC(=O)[C@@H]2CCCN2C(=O)[C@@H](NC(=O)[C@@H](N)Cc2ccccc2)CCCNC1=O [Compound 42, H-Phe-[Orn-Pro-cha-Trp-Nle]] (H-F[Orn]P[dCha]W[Nle]; lactam 2-C)	45 % of 200 μM	–	pure antagonists	noteworthy inhibitory activity	–
CC(=O)N[C@@H](Cc1ccccc1)C(=O)N[C@H]1CCCNC(=O)[C@H](Cc2ccccc2)NC(=O)[C@H](Cc2c[nH]c3ccccc23)NC(=O)[C@@H](CC2CCCCC2)NC(=O)[C@@H]2CCCN2C1=O [Compound 1, Ac-Phe-[Orn-Pro-cha-Trp-Phe]] (Ac-F[Orn]P[dCha]WF; lactam 2-C)	8 % of 200 μM	8%	pure antagonists	noteworthy inhibitory activity	IC50-value compared to compound 40 (in words) (human C5aR (CD88) [1]): without a significant increase of the IC50-value
B1	–	–	–	–	IC50 activity group, enzyme release assay (human C5aR (CD88) [4]): ≤ 50 nM; IC50, enzyme release assay (human C5aR (CD88) [5]): 30 nM
B2	–	–	–	–	IC50 activity group, enzyme release assay (human C5aR (CD88) [4]): ≤ 2000 nM; IC50, functional assay as used in this application (human C5aR (CD88) [5]): 1300 nM
